“And” between values parts separate entries of the source, which are not always exact repeats. Identical values can stand only once.

Consider one substance from US20040005327A1, “Immune T-cell stimulation” (priority 2002, published 2004).

The experiment deals with T-lymphocytes. Nature of the experiment: Blastogenesis of T-cells, 3H-thymidine incorporation. In kind it is cell-based. As to conditions: for 3H-thymidine incorporation/well / Stimulation Index: PHA 5 μg/ml. The protocol:
Dilutions of PHA were prepared from 1:100 to 1:1000 and the dilutions were added to mycro-plate system lymphocyte cultures. Phytohemaglutinin, Pockeweed antigen and A Concanavalin were added to identified wells. After the culture period, T-lymphocytes proliferation was determined by radioactive tymidine uptake assay.
The present study compared the mitogenic effect of hyperimmune whole egg and a partially purified fraction of the hyperimmune egg (less then 3K fraction described in Example 2) against control medium alone. The hyperimmune whole egg was tested at varying concentrations that include 0.24, 0.98, 3.9, 15.6, 62.5 and 250 μg/ml. The purified less than 3K fraction from the hyperimmune egg was tested at 0.1, 0.2, 0.7, 2.0, 6.1, 18.4, 55.3 and 166.0 μg/ml concentrations. The Stimulating Index for hyperimmune whole egg, in accordance with the above concentrations, was 0.9, 0.8, 0.9, 0.9, 0.8, and 0.8 respectively, which corresponds, in the test conditions, to a cell population increase of 90, 80, 90, 90, 80 and 80% respectively. The Stimulating Index for the 3K purified fraction, in accordance with the above concentrations, was 1.1, 1.2, 1.5, 1.7, 1.4, 1.3, 1.0 and 1.2 respectively (see Table 2), which corresponds, in the test conditions, to a cell population increasing of 110, 120, 150, 170, 140, 130, 100 and 120% respectively.

[1] abbreviates: single wells No. 1-6, first study.
Setting [2] is: single wells No. 1-6, repeated study.

Phytohemaglutinin [PHA]: the 3H-thymidine incorporation/well is, setting by setting: (AVE of 6 wells, first study) 108028 cpm; (AVE of 6 wells, repeated study) 109901 cpm; under setting [1], 98898 cpm and 121212 cpm and 97149 cpm and 118218 cpm and 101241 cpm and 111452 cpm; under setting [2], 110201 cpm and 121811 cpm and 97453 cpm and 112934 cpm and 102484 cpm and 114522 cpm. Also, the “Stimulation Index” value was 195.8 (AVE of 6 wells, first study); 292.2 (AVE of 6 wells, repeated study); 179.2 and 219.7 and 176.0 and 214.2 and 183.5 and 202.0 under setting [1]; 293.0 and 323.8 and 259.1 and 300.2 and 272.4 and 304.4 under setting [2]. Further, the T-lymphocytes proliferation result (PHA dilutions 1:100 to 1:1000, radioactive tymidine uptake) was “increased the proliferation of free mitogen lymphocytes intensively”.
